Measurements from PMC2903571, “Sterol carrier protein-x gene and effects of sterol carrier protein-2 inhibitors on lipid uptake in Manduca sexta” (BMC Physiology, 2010).
Counter-ions that a name gives are not always drawn.

Columns and labels:
[1] = design: method as in PMID 6833881; details: room temperature; cited from earlier work
[2] = design: method as in PMID 11566796; details: cited from earlier work
MsSCP-2 [3] = target: T1, MsSCP-2 (Manduca sexta, UniProt D8VD27); assay: NBD-cholesterol binding assay, recombinant MsSCP-2; details: NBD-cholesterol 1 μM, MsSCP-2 1 nM~10 μM, one site binding non-linear regression; read-out: binding affinity (Kd) of MsSCP-2 to NBD-cholesterol
Experimental: (§1) MsSCP-2 binding affinity for NBD-cholesterol, an analog of cholesterol, was determined using NBD-cholesterol binding assays. A 1 ml sample of 10 μM recombinant MsSCP-2 was diluted with 10 mM KHPO4 buffer (pH 7.4) to various concentrations (1 nM~10 μM). Twenty-five microliters of each concentration of MsSCP-2 solution and the control (without MsSCP-2) were thoroughly mixed with 25 μl of NBD-cholesterol solution (1 μM in KHPO4 buffer, pH 7.4) and allowed to equilibrate for 3 minutes to permit stable measurement of the fluorescence signal. NBD-cholesterol fluorescence was excited at 470 nm, and emission was recorded at 530 nm using a fluorescence microplate reader (Model: GeminiXPS, Molecular Devices). Data were fit using a simple, single binding site, non-linear regression model in GraphPad PRISM® software version 4.0 (GraphPad Software Inc., San Diego, CA) using the equation: [drawing 1]
(§2) Where, Kd is the binding affinity, X is the NBD-cholesterol concentration (μM), Y is the total binding (fluorescent intensity unit), and Bmax is the maximum specific binding to be fit. AeSCP-2 and GST were used as a positive control and a negative control, respectively. NBD-cholesterol binding assays for the controls were performed the same as described above for recombinant MsSCP-2.

AeSCP-2 [4] = target: T2, AeSCP-2 (Aedes aegypti, UniProt Q86PR3); assay: NBD-cholesterol binding assay, AeSCP-2 (positive control); details: NBD-cholesterol 1 μM, one site binding non-linear regression; read-out: binding affinity (Kd) of AeSCP-2 to NBD-cholesterol
T2 sequence (Q86PR3 1-110): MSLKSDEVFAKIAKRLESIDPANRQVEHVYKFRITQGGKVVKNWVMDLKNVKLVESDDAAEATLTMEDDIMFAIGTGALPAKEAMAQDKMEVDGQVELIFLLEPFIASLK
Experimental: as §1, §2

GST = assay: NBD-cholesterol binding assay, GST (negative control); design: species or system bacterial; details: negative control protein
Experimental: as §1, §2

[5] = test system: M. sexta Day 3 4th instar larvae; assay: [3H]-cholesterol uptake (label/chase) in larvae fed SCPIs; type: in vivo, Manduca sexta; details: for suppression of cholesterol storage (stored [3H]-cholesterol) in the fat body: within 6 hours of treatment, versus controls; for accumulation of [3H]-cholesterol in the fat body versus controls: within 6 hours post feeding; for [3H]-cholesterol levels in the feces, higher than in the controls: within the 6 hour period; for amount of labeled cholesterol in the hemolymph: 2 to 6 hours post feeding; for hemolymph [3H]-cholesterol levels versus control: all post feeding time points; for total amount of [3H]-cholesterol in the midgut tissue versus controls: over the observed time period (2-6 h), two-way ANOVA
Experimental: (§3) Collected tissue samples were stored at -80°C.
(§4) Student t-test was used in cases where a pair of treatments was compared to determine the significance of the differences.

[6] = test system: M. sexta Day 3 4th instar larvae; assay: [3H]-palmitic acid uptake (label/chase) in larvae fed SCPIs; type: in vivo, Manduca sexta; details: midgut tissue, 2-6 h post feeding
Experimental: as §3, §4

Manduca sexta GV1 cells = test system: Manduca sexta GV1 cells; design: method as in PMID 15627652; details: 10 μM; cited from earlier work
MsSCP-2 [7] = target: T1, MsSCP-2; assay: biochemical
Experimental: (§5) The inhibitory effect of SCPI on cholesterol binding to MsSCP-2 was measured using NBD-cholesterol competition assays. In a 50 μl reaction solution in each well of a 96-well plate purified recombinant MsSCP-2 (5 μM) was incubated with NBD-cholesterol (1.25 μM) in the presence of increased concentrations of a SCPI (0-12.5 μM) in 10 mM KHPO4 buffer (pH 7.4) for 5 min. The fluorescence intensity (excitation/emission = 470/530) of NBD-cholesterol was measured. The background control was NBD-cholesterol alone in 10 mM KHPO4 buffer (pH 7.4). A separate set of tests was performed using NBD-cholesterol with increasing concentrations of a SCPI to assess whether a SCPI interfered with NBD-cholesterol fluorescence. If a SCPI interfered with NBD-cholesterol fluorescence, the background control was NBD-cholesterol along with the SCPI. The net change in NBD-cholesterol fluorescence intensity was calculated by subtracting the fluorescence of the background control from the NBD-cholesterol-MsSCP-2 complex in the absence or presence of an inhibitor. The data were plotted with the relative NBD-cholesterol fluorescent intensity (bound NBD-cholesterol) as the y-axis and the molarities of the inhibitor as the x-axis. Bacterial GST protein and Aedes aegypti SCP-2 protein (AeSCP-2) were used as a negative control and a positive control for the assays, respectively.

AeSCP-2 [8] = target: T2, AeSCP-2; assay: biochemical
Experimental: as §5

Day 3 4th instar larvae = assay: Dietary uptake of NBD-cholesterol in larvae fed SCPIs; details: mean ± S.D.
Experimental: NBD-cholesterol and the SCPI were added into the diet and fed to Day 3 4th instar larvae (12 insects (4 insects/time)/group) as described for [^3H]-cholesterol. Total lipids were extracted from tissue samples as described for [^3H]-cholesterol. Dried lipids were re-dissolved in 50 μl methanol and the NBD fluorescent was measured (470/530 nm = excitation/emission). RFU = the relative fluorescent unit (sample FU - blank FU).
**Data were analyzed using two-way ANOVA.

Manduca sexta larvae = test system: Manduca sexta larvae; design: method as in PMID 15627652; details: cited from earlier work

T1 sequence (D8VD27 entry or part of it): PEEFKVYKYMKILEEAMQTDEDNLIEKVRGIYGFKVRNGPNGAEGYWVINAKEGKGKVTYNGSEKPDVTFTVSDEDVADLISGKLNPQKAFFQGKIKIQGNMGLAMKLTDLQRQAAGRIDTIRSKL

SMILES	amount of [3H]-cholesterol in the midgut [5] [DMP/mg protein]	suppression of cholesterol storage (stored [3H]-cholesterol) in the fat body ([5]; fat body) [%]	accumulation of [3H]-cholesterol in the fat body versus controls ([5]; fat body)	[3H]-cholesterol levels in the feces, higher than in the controls [5] [%]	amount of labeled cholesterol in the hemolymph ([5]; SCPI at LD50 dosage in diet) [DPM/mg protein]	hemolymph [3H]-cholesterol levels versus control [5]	total amount of [3H]-cholesterol in the midgut tissue versus controls ([5]; midgut)	[3H]-palmatic acid uptake/levels in the midgut [6]	suppression of cholesterol uptake (Manduca sexta GV1 cells) [%]	EC50 (MsSCP-2 [7]) [nM]	EC50 (AeSCP-2 [8]) [nM]	NBD-cholesterol, fat body, 2 hour (Day 3 4th instar larvae) [RFU/mg proteins]	NBD-cholesterol, fat body, 4 hour (Day 3 4th instar larvae) [RFU/mg proteins]	NBD-cholesterol, fat body, 6 hour (Day 3 4th instar larvae) [RFU/mg proteins]	NBD-cholesterol, hemolymph, 2 hour (Day 3 4th instar larvae) [RFU/mg proteins]	NBD-cholesterol, hemolymph, 4 hour (Day 3 4th instar larvae) [RFU/mg proteins]	NBD-cholesterol, hemolymph, 6 hour (Day 3 4th instar larvae) [RFU/mg proteins]	NBD-cholesterol, midgut, 2 hour (Day 3 4th instar larvae) [RFU/mg proteins]	NBD-cholesterol, midgut, 4 hour (Day 3 4th instar larvae) [RFU/mg proteins]	NBD-cholesterol, midgut, 6 hour (Day 3 4th instar larvae) [RFU/mg proteins]	further results
CC(C)CCC[C@@H](C)[C@H]1CC[C@H]2[C@@H]3CC=C4C[C@@H](O)CC[C@]4(C)[C@H]3CC[C@]12C [Cholesterol, cholesterol]	–	–	–	–	–	–	–	–	–	–	–	–	–	–	–	–	–	–	–	–	solubility in water [1]: ~ 10 nM; flip-flop rate (t1/2) within the lipid bilayer [2]: 1 to 2 min
C[C@H](CNc1ccc([N+](=O)[O-])c2nonc12)[C@H]1CC[C@H]2[C@@H]3CC=C4C[C@@H](O)CC[C@]4(C)[C@H]3CC[C@]12C [NBD-cholesterol, 22-(N-(7-nitrobenz-2-oxa-1,3-diazol-4-yl)amino)-23,24-bisnor-5-cholen-3β-ol]	–	–	–	–	–	–	–	–	–	–	–	–	–	–	–	–	–	–	–	–	Kd (MsSCP-2 [3]): 1860 nM; Kd (AeSCP-2 [4]): 820 nM; binding of GST to NBD-cholesterol (GST): little binding
CC(=O)Nc1ccc(Nc2nc(-c3ccc(Cl)c(Cl)c3)cs2)cc1 [SCPI-1, N-4-{[4-(3,4-dichlorophenyl)-1,3-thiazol-2-yl]amino}phenyl)aetamide hydrobromide]	555098.9	37	significantly lower	265.84	28087.6	significantly lower	significantly lower	suppressed	15	2200	900	8.01±2.84	4.18±1.06	3.75±1.10	8.62±3.62	7.04±1.37	5.63±1.62	22.77±3.02	22.61±4.57	17.78±6.43	total [3H]-cholesterol in the midgut tissue compared with the control group ([5]; midgut, 2 hour time point, SCPI at LD50 dosage in diet): slightly lower
COc1cccc(-n2sc3c(c2=S)-c2cc(Cl)ccc2NC3(C)C)c1 [SCPI-2, 8-chloro-2-(3-methoxyphenyl)-4,4-dimethyl-4,5-dihydroisothiazol[5,4-c]quinoline-1(2H)-thione]	367836.9	69	significantly lower	369.02	29564.4	significantly lower	significantly lower	suppressed	22	900	800	4.20±0.57	7.74±3.56	9.05±4.09	4.93±1.26	4.58±1.47	3.89±0.98	21.39±2.77	21.45±3.55	17.43±6.46	less stored [3H]-cholesterol in the fat body than for the SCPI-1-treatment ([5]; fat body, 6 hours post feeding): 56%; greater reduction in [3H]-cholesterol uptake/transport than the SCPI-1-treatment ([5]; midgut tissue): 46%; [3H]-cholesterol in the midgut tissue, % of the controls ([5]; midgut, 2 hour post feeding, SCPI at LD50 dosage in diet): 43.18%; lethality to Manduca larvae (Manduca sexta larvae): more lethal than SCPI-1
